Measurements from patent publication US20250041461A1, “[177LU] LUTETIUM-PSMA I&T COMPOSITION AND DOSIMETRY, KIT, METHOD OF MAKING, AND METHOD OF USING THEREOF” (Curium US LLC, priority 2023, published 2025).
Several values for one entry are separate records, joined by “and”; a condition that tells them apart may be missing. Identical values can stand only once.

Legend:
[1] = Dosimetry sub-study, first 6 patients, cycle 1 (SPECT/CT, TIAC, OLINDA 2.2.3); format: in vivo, human; settings: for projected cumulative absorbed dose to the kidneys after 6 cycles: 7.4 GBq per cycle, number of cycles x absorbed dose at cycle 1
Experimental: Six subjects were administered a target dose of 7.4 GBq (mean 7.52±0.16 GBq) of ^177Lu-PSMA-I&T. Following the infusion, subjects underwent single photon emission computed tomography (SPECT)/computed tomography (CT) imaging at four timepoints (4 h, 24 h, 48 h, 168 h). Image data were analysed to compute time integrated activity coefficients (TIAC) in each organ of interest and/or with appreciable and meaningful ^177Lu-PSMA-I&T activity above background which included kidneys, bladder, liver, lumbar vertebrae L2-L4, lacrimal glands, salivary glands, intestine and whole body. To compute subject-specific organ doses, organ-level TIAC data were entered into Organ Level Internal Dose Assessment, OLINDA 2.2.3 and resulting organ doses for each target organ and whole-body effective dose were collated and averaged.
Patients received SPECT/CT imaging (anatomical coverage included the salivary gland and extended through the pelvis) following the injection of 7.4 (+/−10%) GBq of ^177Lu-PSMA-I&T (detailed injected doses are reported). All patients completed the first treatment cycle and the acquisition of images was carried out without any protocol deviation.
The imaging data was analyzed using Invicro's VivoQuant software, a validated software used in a 21 CFR § 11-compliant workflow. The general quantification approach was based on the principles detailed in MIRD Pamphlet No. 16 (Siegel J, Thomas S, Stubbs J, et al. MIRD pamphlet no. 16: Techniques for quantitative radiopharmaceutical biodistribution data acquisition and analysis for use in human radiation dose estimates. J Nucl Med. 1999; 40:37S-61S and MIRD Primer for Absorbed Dose Calculations, Revised Ed. J Nucl Med. 1991), No 23 (Dewaraja Y K, Frey E C, Sgouros G, et al. MIRD pamphlet No. 23: quantitative SPECT for patient-specific 3-dimensional dosimetry in internal radionuclide therapy. J Nucl Med. 2012; 53(8):1310-1325), and No 26 (Ljungberg M, Celler A, Konijnenberg M W, et al. MIRD Pamphlet No. 26: Joint EANM/MIRD Guidelines for Quantitative ^177Lu SPECT Applied for Dosimetry of Radiopharmaceutical Therapy. J Nucl Med. 2016; 57(1):151-162), as appropriate.
Each SPECT image was co-registered with its corresponding CT. Image calibration was performed to convert the counts measured on the SPECT images to activity (Bq) (Ljungberg et al. MIRD Pamphlet No. 26: Joint EANM/MIRD Guidelines for Quantitative ^177Lu SPECT Applied for Dosimetry of Radiopharmaceutical Therapy. J Nucl Med. 2016; 57(1):151-162). The same SPECT/CT system was used in each patient for the entirety of the dosimetry study.
Regions of interest (kidneys, bladder, liver, lumbar vertebrae L2-L4, lacrimal glands, salivary glands and whole body) were drawn on each dataset by a trained image analyst. Lumbar vertebrae L2-L4 was delineated on the CT images (Hindorf C, Glatting G, Chiesa C, Linden O, Flux G, Committee ED. EANM Dosimetry Committee guidelines for bone marrow and whole-body dosimetry. Eur J Nucl Med Mol Imaging. 2010; 37(6):1238-1250) to derived red marrow doses. For kidneys, an ROI was drawn on the SPECT image to include all the uptake seen in the kidneys. Similarly for lacrimal glands, all the uptake observed on the SPECT image at the lacrimal glands location was segmented.
Time-activity curves of the activity in each ROI as a function of time were plotted. These curves were normalized by the known injected activity to arrive at units of fraction of injected activity. Calculations of time-integrated activity coefficient (TIAC, in units of hours) were performed for each region of interest listed above.
Clearance of the tracer was derived from a data-appropriate fit of each organ TAC. The curve fit was optimized using the Akaike information criterion (AIC) and checked visually by an image scientist. Depending on the shape of the TAC, the data was fitted with the sum of one, two or three exponentials or using a rise and fall model. […]

[2] = numerous studies; cited from earlier work

O=C([O-])CC[C@H](NC(=O)N[C@@H](CCCCNC(=O)CCCCCCC(=O)NCCCC[C@@H](NC(=O)[C@@H](Cc1ccccc1)NC(=O)[C@@H](Cc1ccc(O)c(I)c1)NC(=O)CC[C@H](C(=O)[O-])N1CCN(CC(=O)[O-])CCN(CC(=O)[O-])CCN(CC(=O)[O-])CC1)C(=O)[O-])C(=O)[O-])C(=O)[O-].[177Lu+3].[H+].[H+].[H+].[H+].[H+] [^177Lu-PSMA I&T, (3S,7S,26R,29R,32R,37R)-29-benzyl-32-(4-hydroxy-3-iodobenzyl)-5,13,20,28,31,34-hexaoxo-37-(4,7,10-tris(carboxymethyl)-1,4,7,10-tetraazacyclododecan-1-yl)-4,6,12,21,27,30,33-heptaazaheptatriacontane-1,3,7,26,37-pentacarboxylic acid; lutetium-177 (III)]
Absorbed Dose, Adrenals, Mean ([1]; 6 patients, cycle 1): 0.02 Gy/GBq | Absorbed Dose, Brain, Mean ([1]; 6 patients, cycle 1): 0.01 Gy/GBq | Absorbed Dose, Esophagus, Mean ([1]; 6 patients, cycle 1): 0.01 Gy/GBq | Absorbed Dose, Eyes, Mean ([1]; 6 patients, cycle 1): 0.01 Gy/GBq | Absorbed Dose, Gallbladder wall, Mean ([1]; 6 patients, cycle 1): 0.02 Gy/GBq | Absorbed Dose, Heart wall, Mean ([1]; 6 patients, cycle 1): 0.01 Gy/GBq | Absorbed Dose, Kidneys, Mean ([1]; 6 patients, cycle 1): 0.46 Gy/GBq | Absorbed Dose, Left colon, Mean ([1]; 6 patients, cycle 1): 0.39 Gy/GBq | Absorbed Dose, Liver, Mean ([1]; 6 patients, cycle 1): 0.03 Gy/GBq | Absorbed Dose, Lungs, Mean ([1]; 6 patients, cycle 1): 0.01 Gy/GBq | Absorbed Dose, Osteogenic cells, Mean ([1]; 6 patients, cycle 1): 0.02 Gy/GBq | Absorbed Dose, Pancreas, Mean ([1]; 6 patients, cycle 1): 0.02 Gy/GBq | Absorbed Dose, Prostate, Mean ([1]; 6 patients, cycle 1): 0.02 Gy/GBq | Absorbed Dose, Rectum, Mean ([1]; 6 patients, cycle 1): 0.37 Gy/GBq | Absorbed Dose, Red Marrow, Mean ([1]; 6 patients, cycle 1): 0.02 Gy/GBq | Absorbed Dose, Right colon, Mean ([1]; 6 patients, cycle 1): 0.21 Gy/GBq | Absorbed Dose, Salivary Glands, Mean ([1]; 6 patients, cycle 1): 0.10 Gy/GBq | Absorbed Dose, Small intestine, Mean ([1]; 6 patients, cycle 1): 0.05 Gy/GBq | Absorbed Dose, Spleen, Mean ([1]; 6 patients, cycle 1): 0.02 Gy/GBq | Absorbed Dose, Stomach Wall, Mean ([1]; 6 patients, cycle 1): 0.01 Gy/GBq | Absorbed Dose, Testes, Mean ([1]; 6 patients, cycle 1): 0.01 Gy/GBq | Absorbed Dose, Thymus, Mean ([1]; 6 patients, cycle 1): 0.01 Gy/GBq | Absorbed Dose, Thyroid, Mean ([1]; 6 patients, cycle 1): 0.01 Gy/GBq | Absorbed Dose, Total Body, Mean ([1]; 6 patients, cycle 1): 0.02 Gy/GBq | Absorbed Dose, Urinary Bladder wall, Mean ([1]; 6 patients, cycle 1): 0.37 Gy/GBq | absorbed dose, kidneys ([1]; 6 patients, cycle 1): 0.46±0.23 Gy/GBq | absorbed dose, lacrimal glands ([1]; 6 patients, cycle 1): 0.77±0.25 Gy/GBq | absorbed dose, left colon ([1]; 6 patients, cycle 1): 0.39±0.32 Gy/GBq | absorbed dose, rectum ([1]; 6 patients, cycle 1): 0.37±0.31 Gy/GBq | absorbed dose, right colon ([1]; 6 patients, cycle 1): 0.21±0.17 Gy/GBq | absorbed dose, salivary glands ([1]; 6 patients, cycle 1): 0.10±0.06 Gy/GBq | absorbed dose, urinary bladder wall ([1]; 6 patients, cycle 1): 0.37±0.20 Gy/GBq | Whole-body time integrated activity coefficient, mean ([1]; 6 patients, cycle 1, 7.4 GBq, SD 6.7): 16.6 h | projected cumulative absorbed dose to the kidneys after 6 cycles ([1]; 6 patients): 20.4±10.2 Gy | projected cumulative absorbed dose to the kidneys after 6 cycles ([1]; 6 patients, listed as 177Lu-PSMA-I&T): 20.4 Gy | risk of kidney toxicities with 6 treatment cycles ([1]; conclusion from dosimetry results): possible without the risk of kidney toxicities | Effective Dose Cycle 1 ([1]; individual patients (one per Subject ID)): 9.03E−02 mSv/MBq and 3.11E−02 mSv/MBq and 1.11E−01 mSv/MBq and 6.97E−02 mSv/MBq and 8.11E−02 mSv/MBq and 2.68E−02 mSv/MBq | Kidneys Absorbed Dose (Gy/GBq) ([1]; individual patients (one per Subject ID), cycle 1): 0.27 Gy/GBq and 0.22 Gy/GBq and 0.48 Gy/GBq and 0.64 Gy/GBq and 0.34 Gy/GBq and 0.81 Gy/GBq | Kidneys Absorbed Dose (Gy) ([1]; individual patients (one per Subject ID), cycle 1, actual injected dose): 2.03 Gy and 1.68 Gy and 3.62 Gy and 4.87 Gy and 2.56 Gy and 5.82 Gy | Kidneys Absorbed Dose (Gy) Assuming 7.4 GBq per cycle ([1]; individual patients (one per Subject ID), one cycle): 4.8 Gy and 2.5 Gy and 6.0 Gy and 2.0 Gy and 1.7 Gy and 3.6 Gy | Extrapolation of Absorbed Dose to 6 Cycles (Gy) Assuming 7.4 GBq per cycle ([1]; kidneys, individual patients (one per Subject ID)): 28.5 Gy and 15.0 Gy and 35.8 Gy and 11.8 Gy and 9.9 Gy and 21.3 Gy | Extrapolation of Absorbed Dose to 6 Cycles (Gy) Assuming 7.4 GBq per cycle, mean ([1]; kidneys, mean of 6 patients): 20.4 Gy | Kidneys Absorbed Dose (Gy), Mean ([1]; mean of 6 patients, cycle 1): 3.43 Gy | Kidneys Absorbed Dose (Gy/GBq), Mean ([1]; mean of 6 patients, cycle 1): 0.46 Gy/GBq | Whole Body TIAC (time integrated activity coefficient), Mean ([1]; mean of 6 patients, cycle 1): 16.6 h | Kidneys Absorbed Dose (Gy) Assuming 7.4 GBq per cycle, mean ([1]; mean of 6 patients, one cycle): 3.4 Gy | safety and tolerability [2]: safe and well tolerated
